Measurements published in ChEMBL document CHEMBL4041540, “In silico selection and cell-based characterization of selective and bioactive compounds for androgen-dependent prostate cancer cell” (Bioorg Med Chem Lett, 2017).
Activity calls are given as the source filed them. The rule behind the calls is not given here.

Key:
[1] = biological target: T1, Androgen receptor (Homo sapiens) (UniProt P10275)
T1 sequence (whole entry): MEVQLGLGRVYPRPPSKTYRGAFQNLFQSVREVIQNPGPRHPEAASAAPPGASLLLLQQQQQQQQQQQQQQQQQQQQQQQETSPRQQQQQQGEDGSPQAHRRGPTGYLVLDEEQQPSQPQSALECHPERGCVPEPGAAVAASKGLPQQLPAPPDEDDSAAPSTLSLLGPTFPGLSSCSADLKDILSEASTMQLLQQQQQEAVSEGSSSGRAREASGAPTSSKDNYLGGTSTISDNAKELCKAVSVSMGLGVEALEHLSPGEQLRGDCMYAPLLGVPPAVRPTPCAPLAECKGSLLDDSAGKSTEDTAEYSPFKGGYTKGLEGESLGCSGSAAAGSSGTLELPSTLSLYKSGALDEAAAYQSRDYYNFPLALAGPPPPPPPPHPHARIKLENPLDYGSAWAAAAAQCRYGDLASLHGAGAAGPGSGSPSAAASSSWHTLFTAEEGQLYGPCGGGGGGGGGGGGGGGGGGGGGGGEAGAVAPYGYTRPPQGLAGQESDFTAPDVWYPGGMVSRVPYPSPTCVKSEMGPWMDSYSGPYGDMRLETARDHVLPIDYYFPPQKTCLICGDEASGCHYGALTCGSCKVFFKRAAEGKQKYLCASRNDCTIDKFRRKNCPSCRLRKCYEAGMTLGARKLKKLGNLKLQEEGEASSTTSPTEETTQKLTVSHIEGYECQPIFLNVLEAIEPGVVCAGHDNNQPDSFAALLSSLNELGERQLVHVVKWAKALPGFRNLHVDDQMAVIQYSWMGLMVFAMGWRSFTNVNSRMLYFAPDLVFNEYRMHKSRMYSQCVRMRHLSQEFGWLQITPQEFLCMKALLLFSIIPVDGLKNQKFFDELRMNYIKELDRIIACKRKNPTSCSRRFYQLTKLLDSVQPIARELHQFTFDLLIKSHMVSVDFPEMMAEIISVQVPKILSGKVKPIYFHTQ
Description: Inhibition of AR signaling pathway in testosterone-stimulated human LNCAP cells assessed as cell growth inhibition by flow cytometry

LNCaP [2] = assay: Cell cycle arrest in testosterone-stimulated human LNCAP cells assessed as G2/M phase accumulation at 8 uM after 5 days (reference value: 13.3%); assay type: functional
LNCaP [3] = assay: Cell cycle arrest in testosterone-stimulated human LNCAP cells assessed as S phase accumulation at 8 uM after 3 days (reference value: 14.1%); assay type: functional
[4] = Selectivity index, ratio of GI50 for Balb/c mouse 3T3 clone A31 cells to GI50 for AR signaling pathway in testosterone-stimulated human LNCAP cells assessed as cell growth inhibition
PC-3 = assay: Growth inhibition of human PC3 cells at 100 uM after 72 hrs by MTT assay relative to control; assay type: functional; conditions: PC-3, 72 h, read-out: GI
LNCaP [5] = assay: Cell cycle arrest in testosterone-stimulated human LNCAP cells assessed as G2/M phase accumulation at 8 uM after 3 days (reference value: 8.2%); assay type: functional
LNCaP [6] = assay: Growth inhibition of human LNCAP cells at 100 uM after 72 hrs by MTT assay relative to control; assay type: functional; conditions: read-out: GI
LNCaP [7] = assay: Cell cycle arrest in testosterone-stimulated human LNCAP cells assessed as G0 phase accumulation at 8 uM after 5 days (reference value: 8.2%); assay type: functional
LNCaP [8] = assay: Cell cycle arrest in testosterone-stimulated human LNCAP cells assessed as G0 phase accumulation at 8 uM after 3 days (reference value: 3.9%); assay type: functional
LNCaP [9] = assay: Cell cycle arrest in testosterone-stimulated human LNCAP cells assessed as S phase accumulation at 8 uM after 5 days (reference value: 15.1%); assay type: functional
LNCaP [10] = assay: Cell cycle arrest in testosterone-stimulated human LNCAP cells assessed as G1 phase accumulation at 8 uM after 5 days (reference value: 63.4%); assay type: functional
DU-145 = assay: Growth inhibition of human DU145 cells at 100 uM after 72 hrs by MTT assay relative to control; assay type: functional; conditions: DU-145, 72 h, read-out: GI
[11] = biological target: T1, Androgen receptor (Homo sapiens); assay: Inhibition of AR signaling pathway in testosterone-stimulated human LNCAP cells assessed as cell growth inhibition at 100 uM after 6 days by MTT assay relative to control
[12] = biological target: T1, Androgen receptor (Homo sapiens); remark: listed apart in the source
Description: Inhibition of AR signaling pathway in testosterone-stimulated human LNCAP cells assessed as cell growth inhibition after 6 days by MTT assay

LNCaP [13] = assay: Cell cycle arrest in testosterone-stimulated human LNCAP cells assessed as G1 phase accumulation at 8 uM after 3 days (reference value: 73.8%); assay type: functional
[14] = Growth inhibition of Balb/c mouse 3T3 clone A31 cells at 250 uM after 72 hrs by MTT assay relative to control; assay type: cell-based; conditions: Balb/c 3T3 clone A31 cells, read-out: GI
[15] = Growth inhibition of Balb/c mouse 3T3 clone A31 cells after 72 hrs by MTT assay; assay type: cell-based; conditions: Balb/c 3T3 clone A31 cells

Row | SMILES | inhibition of growth at 100 µM (PC-3) | inhibition of growth at 100 µM (LNCaP [6]) | inhibition of growth at 100 µM (DU-145) | inhibition [11] | further results
1 | Cc1ccc2[nH]c3c(SCC(=O)Nc4cccc(C#N)c4)ncnc3c2c1 | ≤ 50% | ≤ 50% | ≤ 50% | Active | GI50 [1]: 22.6 µM; Activity (LNCaP [2]): 9.3%; Activity (LNCaP [3]): 18.4%; RatioGI50 [4]: >11; Activity (LNCaP [5]): 15.1%; Activity (LNCaP [7]): 6.3%; Activity (LNCaP [8]): 1.9%; Activity (LNCaP [9]): 15.7%; Activity (LNCaP [10]): 68.7%; GI50 [12]: 22.4 µM; Activity (LNCaP [13]): 64.6%; inhibition at 72 h, 250 µM [14]: 20%
2 | CC(C(=O)Nc1ccc(C#N)cc1)N1CCN(c2ccc(O)cc2)CC1 (stereo unspecified) | ≤ 50% | ≤ 50% | ≤ 50% | inactive | 
3 | N#Cc1ccc(NC(=O)COC(=O)Cc2cccs2)cc1Cl | ≤ 50% | ≤ 50% | ≤ 50% | Active | 
4 | N#Cc1ccc(NC(=O)COC(=O)Cc2ccc(Cl)c(Cl)c2)cc1 | ≤ 50% | ≤ 50% | ≤ 50% | inactive | 
5 | N#Cc1ccc(C(=O)N2CCN(c3ccc(F)cc3)CC2)c(F)c1 | ≤ 50% | ≤ 50% | ≤ 50% | inactive | 
6 | O=C(CSc1ncnc2c1[nH]c1ccccc12)Nc1cccc(F)c1 | ≤ 50% | ≤ 50% | ≤ 50% | inactive | 
7 | O=C(CSc1ncnc2c1[nH]c1ccccc12)Nc1ccc(F)cc1 | ≤ 50% | ≤ 50% | ≤ 50% | inactive | 
8 | N#Cc1ccc(CN2CCN(C(=O)c3ccc(F)c(F)c3)CC2)cc1 | ≤ 50% | ≤ 50% | ≤ 50% | inactive | 
9 | Cc1cc(NC(=O)N2CCN(c3ccc(C#N)cc3F)CC2)on1 | ≤ 50% | ≤ 50% | ≤ 50% | inactive | 
10 | N#Cc1cc(F)c(N2CCN(C(=O)c3ccsc3)CC2)c(F)c1 | ≤ 50% | ≤ 50% | ≤ 50% | inactive | 
11 | CC1CCCN(C(=O)C2CCN(c3ccc(C#N)cc3F)CC2)C1 (stereo unspecified) | ≤ 50% | ≤ 50% | ≤ 50% | inactive | 
12 | N#Cc1ccc(NC(=O)CSc2nc3ccc([N+](=O)[O-])cc3s2)cc1 | ≤ 50% | ≤ 50% | ≤ 50% | inactive | 
13 | N#Cc1ccc(NC(=O)COC(=O)Cc2ccc(F)cc2)cc1Cl | ≤ 50% | ≤ 50% | ≤ 50% | inactive | 
14 | N#Cc1ccc(CN2CCN(C(=O)C3CCCC3)CC2)c(F)c1 | ≤ 50% | ≤ 50% | ≤ 50% | inactive | 
15 | N#Cc1ccc(N2CCN(C(=O)c3ccc(=O)[nH]c3)CC2)c(F)c1 | ≤ 50% | ≤ 50% | ≤ 50% | inactive | 
16 | N#Cc1ccc(CN2CCN(C(=O)Cn3ccc(=O)[nH]c3=O)CC2)cc1 | ≤ 50% | ≤ 50% | ≤ 50% | inactive | 
17 | CNC(=O)c1ccc(N2C(=S)N(c3ccc(C#N)c(C(F)(F)F)c3)C(=O)C2(C)C)cc1F [ENZALUTAMIDE] |  |  |  |  | GI50 at 72 h [15]: 27.5 µM
18 | CC(OC(=O)Cc1cc2c(s1)CCC2)C(=O)Nc1ccc(C#N)cc1 (stereo unspecified) | ≤ 50% | ≤ 50% | ≤ 50% | inactive | 
